Measurements from the NIST ThermoML archive (doi:10.1016/j.jct.2016.04.008).

Conditions: Liquid; for mass density: 100 kPa, Buoyancy - hydrostatic balance with magnetic suspension - one sinker

CCCCCCCCCCn1cc[n+](C)c1.F[B-](F)(F)F [1-decyl-3-methylimidazolium tetrafluoroborate]
surface tension liquid-gas [mN/m]
Conditions	Ring tensiometer	Willhelmy plate method
283.21 K	30.74	–
287.98 K	30.53	–
288.03 K	–	30.17
293.33 K	30.27	–
293.46 K	–	29.96
298.21 K	30.11	–
298.28 K	–	29.8
303.14 K	29.86	–
303.2 K	–	29.62
308.05 K	29.66	–
308.07 K	–	29.48
313.12 K	29.45	–
313.16 K	–	29.27
318.14 K	–	29.09
318.22 K	29.18	–
322.9 K	–	28.89
322.91 K	28.87	–
328.39 K	28.69	28.66
333.13 K	–	28.48
333.2 K	28.44	–
338.26 K	–	28.28
338.28 K	28.26	–
343.17 K	28.02	–
343.25 K	–	28.12
348.56 K	–	27.89
348.57 K	27.79	–
353.03 K	–	27.7
353.07 K	27.52	–
357.72 K	–	27.55
357.75 K	27.31	–
363.98 K	27.11	27.32

Conditions	mass density [kg/m3]
283.26 K	1083.12
288.04 K	1079.26
293.48 K	1075.46
298.32 K	1072.34
303.26 K	1069.35
308.12 K	1064.91
313.23 K	1061.76
318.16 K	1058.04
323.03 K	1054.91
328.43 K	1051.67
333.15 K	1048.43
338.41 K	1044.81
343.37 K	1041.55
348.69 K	1038.22
353.21 K	1034.92
357.87 K	1032.03
363.98 K	1028.48

CCCCCCCCCCCC[n+]1ccn(C)c1.F[B-](F)(F)F [1-dodecyl-3-methylimidazolium tetrafluoroborate]
surface tension liquid-gas [mN/m]
Conditions	Ring tensiometer	Willhelmy plate method
327.2 K	25.89	–
333.17 K	–	25.79
333.2 K	25.61	–
338 K	–	25.54
338.06 K	25.59	–
342.73 K	–	25.4
343.23 K	25.4	–
347.11 K	25.22	25.26
353.61 K	–	25.03
353.66 K	25.11	–
359.02 K	–	24.82
359.84 K	24.78	–
363.47 K	–	24.64
363.69 K	24.63	–

Conditions	mass density [kg/m3]
328.83 K	1027.93
333.45 K	1024.75
337 K	1022.41
343.4 K	1018.2
347.32 K	1015.89
352.58 K	1012.18
357.71 K	1009
362.85 K	1005.22

CCCCCCCCCn1cc[n+](C)c1.F[B-](F)(F)F [1-nonyl-3-methylimidazolium tetrafluoroborate]
Conditions	mass density [kg/m3]
269.37 K	1108.1
274.7 K	1104.14
278.49 K	1101.14
283.7 K	1097.76
288.38 K	1094.04
293.34 K	1090.55
298.3 K	1087.19
303.16 K	1084.03
308.11 K	1080.68
313.07 K	1077.08
317.8 K	1073.8
322.89 K	1070.47
328.78 K	1067.01
333.51 K	1063.61
338.65 K	1060.05
342.35 K	1057.5
348.22 K	1053.82
352.72 K	1050.55
357.94 K	1047.5
363.54 K	1043.86

surface tension liquid-gas [mN/m]
Conditions	Ring tensiometer	Willhelmy plate method
269.49 K	33.05	–
274.62 K	32.75	–
278.42 K	32.6	–
283.61 K	–	32.09
283.73 K	32.33	–
288.37 K	–	31.88
288.41 K	32.14	–
293.36 K	31.82	31.67
298.28 K	31.59	–
298.31 K	–	31.45
303.11 K	31.38	–
303.12 K	–	31.29
308.07 K	31.2	–
308.11 K	–	31.1
313.04 K	30.9	–
313.06 K	–	30.81
317.79 K	30.65	–
317.83 K	–	30.66
322.85 K	30.43	–
322.9 K	–	30.39
328.72 K	30.17	–
328.74 K	–	30.12
333.58 K	29.92	29.92
338.63 K	29.71	–
338.67 K	–	29.67
342.37 K	29.49	–
342.48 K	–	29.52
348.12 K	–	29.3
348.21 K	29.22	–
352.1 K	29.02	–
353.08 K	–	29.07
357.88 K	28.83	–
357.99 K	–	28.86
363.56 K	28.58	–
363.61 K	–	28.61

CCCCn1cc[n+](C)c1.F[B-](F)(F)F [1-butyl-3-methylimidazolium tetrafluoroborate]
Conditions	mass density [kg/m3]
264.16 K	1227.3
268.12 K	1224.12
273.71 K	1219.13
278.76 K	1215.77
283.03 K	1212.73
288.51 K	1208.73
293.06 K	1205.28
298.21 K	1201.97
303.18 K	1198.44
307.95 K	1195.03
313.18 K	1191.08
318.12 K	1187.23
323.27 K	1183.84
328.23 K	1179.81
333.27 K	1176.33
338.88 K	1172.3
343.23 K	1169.53
348.21 K	1166.02
353.25 K	1162.72
358.57 K	1159.04
363.9 K	1155.79
